# System: IL-1β
# Assay: In-vitro IL-1β inhibition assay in PMA-differentiated, LPS-primed, ATP-stimulated THP1 cells
# Assay type: cell-based
# Details: Homo sapiens, THP-1; THP1 monocytes differentiated with PMA, primed with 500 ng/mL LPS, compound 30 min, 5 mM ATP 1 hr; IL-1β in supernatant; read-out: IC50 (nM), invitro IL-1β inhibitory activity
# Description: THP1 monocytes were differentiated with PMA (100 ng/mL) and incubated at 37 deg C. for 20 hrs in presence of 5% CO2. 2×10^5 differentiated cells were plated per well of 96 well tissue culture plates. The cells were primed using 500 ng/mL Lipopolysaccharide and incubating for 4 h under the same condition. The cells were then treated with various concentrations of the compounds for 30 min followed by treatment with 5 mM ATP for 1 hr. The supernatants were collected and analyzed by IL-1b (Mabtech Cat #3415-1H-20) or TNF-α (Mabtech; Cat #3510-1H-20) detection kit. The data were analyzed using GraphPad Prism V7.0. Dose Response Curve (DRC) was constructed to determine the IC50 value by fitting percentage […] data to the GraphPad Prism using nonlinear regression analysis.
row,IC50 [nM],Compound
1,7.4,"CCCN1CCC[C@@H]1/C=C/S(=O)(=O)NC(=O)Nc1c2c(cc3c1CCC3)CCC2 [Example 4, (R,E)-N-((1,2,3,5,6,7-hexahydro-s-indacen-4-yl)carbamoyl)-2-(1-propylpyrrolidin-2-yl)ethene-1-sulfonamide]"

# System: IL-1β
# Assay: In-vivo LPS and ATP induced IL-1β assay
# Details: Mus musculus, 2.5 h; Dose 10 mpk, po; female C57 mice; serum IL-1β by ELISA; read-out: % IL-1β inhibition in LPS + ATP challenged C57 mice
# Description: All the animal experiments were carried out in female rats and mice, bred in-house. Animals were housed in groups of 6 animals per cage, for a week, in order to habituate them to vivarium conditions (25 f 4° C., 60-65% relative humidity, 12:12 h light:dark cycle, with lights on at 7.30 am). All the animal experiments were carried out according to the internationally valid guidelines following approval by the ‘Zydus Research Center animal ethical committee’.
# Female C57 mice (6-8 weeks) received intraperitoneal injection of 50 μg/mouse of lipopolysaccharide (LPS) in PBS. Animals were treated immediately with the test compounds or the vehicle. After 2 h of LPS injection, animals were administered with ATP at 12.5 mg/mouse dissolved in PBS via intraperitoneal route. After 30 minutes of ATP injection, serum was collected for IL-1β estimation by ELISA.
row,Compound,inhibition in vivo at 10 mg/kg [%]
1,"CCCN1CCC[C@@H]1/C=C/S(=O)(=O)NC(=O)Nc1c2c(cc3c1CCC3)CCC2 [Example 4, (R,E)-N-((1,2,3,5,6,7-hexahydro-s-indacen-4-yl)carbamoyl)-2-(1-propylpyrrolidin-2-yl)ethene-1-sulfonamide]",90
2,"CC(=O)N1CCC[C@H]1/C=C/S(=O)(=O)NC(=O)Nc1c2c(cc3c1CCC3)CCC2 [Example 69, (S,E)-2-(1-acetylpyrrolidin-2-yl)-N-((1,2,3,5,6,7-hexahydro-s-indacen-4-yl)carbamoyl)-ethenesulfonamide]",84
3,"O=C(Nc1c2c(cc3c1CCC3)CCC2)NS(=O)(=O)/C=C/C1CCCO1 (stereo not shown) [Example 73, (E)-N-((1,2,3,5,6,7-hexahydro-s-indacen-4-yl)carbamoyl)-2-(tetrahydrofuran-2-yl)ethene-1-sulfonamide]",80
4,"CC(C)c1cc(F)cc(C(C)C)c1NC(=O)NS(=O)(=O)/C=C/[C@@H]1CCCN1C [Example 77, (S,E)-N-((4-fluoro-2,6-diisopropylphenyl)carbamoyl)-2-(1-methylpyrrolidin-2-yl)ethene-1-sulfonamide]",47
5,"CN1CCCCC1/C=C/S(=O)(=O)NC(=O)Nc1c2c(cc3c1CCC3)CCC2 (stereo not shown) [Example 101, (E)-N-((1,2,3,5,6,7-hexahydro-s-indacen-4-yl)carbamoyl)-2-(1-methylpiperidin-2-yl)ethene-1-sulfonamide]",82
6,"CN1CCC[C@H]1/C=C/S(=O)(=O)NC(=O)Nc1cc2c(c3c1CCC3)CCC2 [Example 102, (E)-N-((1,2,3,6,7,8-hexahydro-as-indacen-4-yl)carbamoyl)-2-(1-methylpyrrolidin-2-yl)ethene-1-sulfonamide]",74

# Reference: patent US12084416B2, “Substituted sulfonylurea derivatives” (Zydus Lifesciences Limited, priority 2019, dated 2024)
